Where two headings read alike, the source gives them in different places. Marks after values point to notes of the source that are not given here.
Columns and labels:
[1] = target: NR1/NR2C (Rattus norvegicus, UniProt P35439+Q00961); assay: Two electrode voltage clamp, Xenopus oocytes expressing recombinant NR1/NR2C; assay type: cell-based; details: logistic fit, minimum forced to 0; read-out: 2C IC50
Method: (§1) Quality of synthesized cRNA was assessed by gel electrophoresis, and quantity was estimated by spectroscopy and gel electrophoresis. Stage V and VI oocytes were surgically removed from the ovaries of large, well-fed and healthy Xenopus laevis anesthetized with 3-amino-benzoic acid ethyl ester (3 gm/l) as previously described. Clusters of isolated oocytes were incubated with 292 U/ml Worthington (Freehold, N.J.) type IV collagenase or 1.3 mg/ml collagenase (Life Technologies, Gaithersburg, MD; 17018-029) for 2 hr in Ca^2+-free solution comprised of (in mM) 115 NaCl, 2.5 KCl, and 10 HEPES, pH 7.5, with slow agitation to remove the follicular cell layer. Oocytes were then washed extensively in the same solution supplemented with 1.8 mM CaCl2 and maintained in Barth's solution comprised of (in mM): 88 NaCl, 1 KCl, 2.4 NaHCO3, 10 HEPES, 0.82 MgSO4, 0.33 Ca(NO3)2, and 0.91 CaCl2 and supplemented with 100 μg/m1 gentamycin, 10 μg/ml streptomycin, and 10 μg/ml penicillin. Oocytes were manually defolliculated and injected within 24 hrs of isolation with 3-5 ng of NR1 subunit cRNA and 7-10 ng of NR2 cRNA subunit in a 50 nl volume, or 5-10 ng of AMPA or kainate receptor cRNAs in a 50 nl volume, and incubated in Barth's solution at 18° C. for 1-7 d. Glass injection pipettes had tip sizes ranging from 10-20 microns, and were backfilled with mineral oil.
(§2) Two electrode voltage-clamp recordings were made 2-7 days post-injection as previously described. Oocytes were placed in a dual-track plexi-glass recording chamber with a single perfusion line that splits in a Y-configuration to perfuse two oocytes. Dual recordings were made at room temperature (23° C.) using two Warner OC725B two-electrode voltage clamp amplifiers, arranged as recommended by the manufacturer. Glass microelectrodes (1-10 Megaohms) were filled with 300 mM KCl (voltage electrode) or 3 M KCl (current electrode). The bath clamps communicated across silver chloride wires placed into each side of the recording chamber, both of which were assumed to be at a reference potential of 0 mV. Oocytes were perfused with a solution comprised of (in mM) 90 NaCl, 1 KCl, 10 HEPES, and 0.5 BaCl2; pH was adjusted by addition of 1-3 M NaOH of HC1 to 7.4. Oocytes were recorded under voltage clamp at −40 mV. […] In some experiments, 10 μM EDTA was obtained by adding a 1:1000 dilution of 10 mM EDTA, in order to chelate contaminant divalent ions such as Zn^2+. […] Concentration effect curves consisting of 4 to 8 concentrations were obtained in this manner. The baseline leak current at −40 mV was measured before and after recording, and the full recording linearly corrected for any change in leak current. […] Each experiment consisted of recordings from 3 to 10 oocytes obtained from a single frog. Results from multiple experiments were pooled, and the average percent responses at antagonist concentrations were fitted by the equation,
(§3) Percent Response=(100−minimum)/(1+([conc]/IC50)nH)+minimum

[2] = target: NR1/NR2D (Rattus norvegicus, UniProt P35439+Q62645); assay: Two electrode voltage clamp, Xenopus oocytes expressing recombinant NR1/NR2D; assay type: cell-based; details: logistic fit, minimum forced to 0; read-out: 2D IC50
Sequence of NR1/NR2D (Rattus norvegicus, UniProt P35439+Q62645) (Q62645 28-1323, other chains not shown): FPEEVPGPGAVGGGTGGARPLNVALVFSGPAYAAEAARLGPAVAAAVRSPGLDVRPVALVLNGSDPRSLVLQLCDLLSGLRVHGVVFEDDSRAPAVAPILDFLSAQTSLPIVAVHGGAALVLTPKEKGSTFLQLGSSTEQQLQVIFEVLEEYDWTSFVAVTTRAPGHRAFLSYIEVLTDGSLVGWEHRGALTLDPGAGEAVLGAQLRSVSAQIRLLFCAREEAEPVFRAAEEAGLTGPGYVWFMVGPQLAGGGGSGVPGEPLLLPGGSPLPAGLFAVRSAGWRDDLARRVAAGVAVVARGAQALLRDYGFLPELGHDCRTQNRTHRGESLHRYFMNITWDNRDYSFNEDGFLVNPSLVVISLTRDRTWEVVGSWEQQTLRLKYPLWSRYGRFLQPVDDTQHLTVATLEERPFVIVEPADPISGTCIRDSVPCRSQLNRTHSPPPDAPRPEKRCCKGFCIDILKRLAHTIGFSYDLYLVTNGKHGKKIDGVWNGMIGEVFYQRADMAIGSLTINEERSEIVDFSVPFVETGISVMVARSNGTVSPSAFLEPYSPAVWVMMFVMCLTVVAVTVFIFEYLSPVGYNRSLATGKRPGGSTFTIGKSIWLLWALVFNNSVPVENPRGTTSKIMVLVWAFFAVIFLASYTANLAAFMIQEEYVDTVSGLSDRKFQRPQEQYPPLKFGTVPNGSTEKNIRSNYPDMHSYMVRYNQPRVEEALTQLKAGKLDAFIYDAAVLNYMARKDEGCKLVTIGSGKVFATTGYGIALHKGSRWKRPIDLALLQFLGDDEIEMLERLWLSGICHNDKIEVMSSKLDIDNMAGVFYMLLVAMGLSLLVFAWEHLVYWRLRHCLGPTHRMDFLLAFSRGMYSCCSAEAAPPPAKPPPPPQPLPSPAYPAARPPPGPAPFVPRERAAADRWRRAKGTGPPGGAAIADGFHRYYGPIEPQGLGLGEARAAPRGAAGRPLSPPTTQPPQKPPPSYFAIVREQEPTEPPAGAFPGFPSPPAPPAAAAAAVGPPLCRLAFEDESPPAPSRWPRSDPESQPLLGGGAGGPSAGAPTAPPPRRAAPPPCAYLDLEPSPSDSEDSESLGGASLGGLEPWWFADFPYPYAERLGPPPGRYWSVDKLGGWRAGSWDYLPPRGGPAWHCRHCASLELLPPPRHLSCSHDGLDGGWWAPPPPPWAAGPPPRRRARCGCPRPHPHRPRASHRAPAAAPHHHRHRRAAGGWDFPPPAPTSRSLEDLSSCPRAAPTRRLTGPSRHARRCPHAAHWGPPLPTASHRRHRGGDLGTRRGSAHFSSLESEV
Method: as §1, §2, §3

[3] = target: NR1/NR2A (Rattus norvegicus, UniProt Q00959); assay: Two electrode voltage clamp, Xenopus oocytes expressing recombinant NR1/NR2A; assay type: cell-based; details: for 2A percent response at the maximum tested concentration: at 100 μM
Method: as §1, §2, §3

[4] = target: NR1/NR2B (Rattus norvegicus, UniProt P35439+Q00960); assay: Two electrode voltage clamp, Xenopus oocytes expressing recombinant NR1/NR2B; assay type: cell-based; details: logistic fit, minimum forced to 0; read-out: 2B IC50
Method: as §1, §2, §3

[5] = target: GluR1 (Rattus norvegicus, UniProt P19490); assay: Two electrode voltage clamp, Xenopus oocytes expressing GluR1; assay type: cell-based
Sequence of GluR1 (P19490 19-907): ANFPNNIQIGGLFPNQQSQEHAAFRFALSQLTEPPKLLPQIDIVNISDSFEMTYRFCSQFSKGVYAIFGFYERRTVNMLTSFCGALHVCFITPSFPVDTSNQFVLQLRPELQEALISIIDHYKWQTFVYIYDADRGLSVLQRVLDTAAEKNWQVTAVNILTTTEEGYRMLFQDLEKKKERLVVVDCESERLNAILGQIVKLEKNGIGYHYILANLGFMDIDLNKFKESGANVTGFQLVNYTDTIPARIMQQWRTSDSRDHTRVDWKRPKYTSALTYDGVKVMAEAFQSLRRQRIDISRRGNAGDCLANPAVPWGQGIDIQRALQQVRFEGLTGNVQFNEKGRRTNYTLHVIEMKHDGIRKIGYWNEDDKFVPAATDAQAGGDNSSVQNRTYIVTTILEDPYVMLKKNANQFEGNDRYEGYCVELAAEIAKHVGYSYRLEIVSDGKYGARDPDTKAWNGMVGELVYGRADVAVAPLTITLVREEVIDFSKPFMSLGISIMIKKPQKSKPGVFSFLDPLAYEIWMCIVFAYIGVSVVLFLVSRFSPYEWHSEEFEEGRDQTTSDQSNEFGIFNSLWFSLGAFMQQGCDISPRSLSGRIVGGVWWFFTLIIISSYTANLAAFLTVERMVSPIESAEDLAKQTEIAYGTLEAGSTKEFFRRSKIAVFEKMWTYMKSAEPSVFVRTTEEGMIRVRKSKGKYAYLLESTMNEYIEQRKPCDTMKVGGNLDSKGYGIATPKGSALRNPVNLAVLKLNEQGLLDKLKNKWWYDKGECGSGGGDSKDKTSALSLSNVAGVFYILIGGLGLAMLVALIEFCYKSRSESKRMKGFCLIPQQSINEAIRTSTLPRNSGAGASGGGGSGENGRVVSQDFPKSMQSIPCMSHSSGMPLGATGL
Method: as §1, §2, §3

[6] = target: NR1/NR2C (Rattus norvegicus, UniProt Q00961); assay: Two electrode voltage clamp, Xenopus oocytes expressing recombinant NR1/NR2C; assay type: cell-based
Method: as §1, §2, §3

[7] = target: NR1/NR2D (Rattus norvegicus, UniProt Q62645); assay: Two electrode voltage clamp, Xenopus oocytes expressing recombinant NR1/NR2D; assay type: cell-based
Sequence of NR1/NR2D (Rattus norvegicus, UniProt Q62645) (Q62645 28-1323, other chains not shown): as the sequence (Q62645 28-1323, other chains not shown) above
Method: as §1, §2, §3

[8] = target: NR1/NR2A (Rattus norvegicus, UniProt P35439+Q00959); assay: Two electrode voltage clamp, Xenopus oocytes expressing recombinant NR1/NR2A; assay type: cell-based; details: logistic fit, minimum forced to 0; read-out: 2A IC50
Method: as §1, §2, §3

[9] = target: NR1/NR2B (Rattus norvegicus, UniProt Q00960); assay: Two electrode voltage clamp, Xenopus oocytes expressing recombinant NR1/NR2B; assay type: cell-based
Method: as §1, §2, §3

[10] = target: homomeric GluR6 kainate receptor (Rattus norvegicus, UniProt P42260); assay: Two electrode voltage clamp, Xenopus oocytes expressing homomeric GluR6; assay type: cell-based; details: in words
Method: Real time Ca^2+ signals were recorded in 96 well plates using FlexStation II multi-mode plate readers. […] Test compounds were added to each well together with agonist to yield a final well concentration of 10 μM test compound in 0.9% DMSO. Compounds that altered the response of any well compared to on-plate control wells beyond 2.5-fold of the standard deviation (calculated from all wells on the plate) or by more than 40% of the control response on a given plate were selected for secondary screening using two-electrode voltage-clamp recordings from Xenopus oocytes expressing recombinant NR1/NR2D receptors. To complete the secondary screen, we obtained selected compounds in powder form. […] We subsequently initiated novel synthesis on this class of compound.
Quality of synthesized cRNA was assessed by gel electrophoresis, and quantity was estimated by spectroscopy and gel electrophoresis. Stage V and VI oocytes were surgically removed from the ovaries of large, well-fed and healthy Xenopus laevis anesthetized with 3-amino-benzoic acid ethyl ester (3 gm/l) as previously described. […]
Two electrode voltage-clamp recordings were made 2-7 days post-injection as previously described. […] Oocytes were recorded under voltage clamp at −40 mV. […] The baseline leak current at −40 mV was measured before and after recording, and the full recording linearly corrected for any change in leak current. […]

[11] = target: T1, NR2B (Homo sapiens, UniProt Q05586+Q13224); details: Kb determined by Schild analysis; read-out: 2B (μM) Kb; cited from earlier work
T1 sequence (Q13224 27-1484, other chains not shown): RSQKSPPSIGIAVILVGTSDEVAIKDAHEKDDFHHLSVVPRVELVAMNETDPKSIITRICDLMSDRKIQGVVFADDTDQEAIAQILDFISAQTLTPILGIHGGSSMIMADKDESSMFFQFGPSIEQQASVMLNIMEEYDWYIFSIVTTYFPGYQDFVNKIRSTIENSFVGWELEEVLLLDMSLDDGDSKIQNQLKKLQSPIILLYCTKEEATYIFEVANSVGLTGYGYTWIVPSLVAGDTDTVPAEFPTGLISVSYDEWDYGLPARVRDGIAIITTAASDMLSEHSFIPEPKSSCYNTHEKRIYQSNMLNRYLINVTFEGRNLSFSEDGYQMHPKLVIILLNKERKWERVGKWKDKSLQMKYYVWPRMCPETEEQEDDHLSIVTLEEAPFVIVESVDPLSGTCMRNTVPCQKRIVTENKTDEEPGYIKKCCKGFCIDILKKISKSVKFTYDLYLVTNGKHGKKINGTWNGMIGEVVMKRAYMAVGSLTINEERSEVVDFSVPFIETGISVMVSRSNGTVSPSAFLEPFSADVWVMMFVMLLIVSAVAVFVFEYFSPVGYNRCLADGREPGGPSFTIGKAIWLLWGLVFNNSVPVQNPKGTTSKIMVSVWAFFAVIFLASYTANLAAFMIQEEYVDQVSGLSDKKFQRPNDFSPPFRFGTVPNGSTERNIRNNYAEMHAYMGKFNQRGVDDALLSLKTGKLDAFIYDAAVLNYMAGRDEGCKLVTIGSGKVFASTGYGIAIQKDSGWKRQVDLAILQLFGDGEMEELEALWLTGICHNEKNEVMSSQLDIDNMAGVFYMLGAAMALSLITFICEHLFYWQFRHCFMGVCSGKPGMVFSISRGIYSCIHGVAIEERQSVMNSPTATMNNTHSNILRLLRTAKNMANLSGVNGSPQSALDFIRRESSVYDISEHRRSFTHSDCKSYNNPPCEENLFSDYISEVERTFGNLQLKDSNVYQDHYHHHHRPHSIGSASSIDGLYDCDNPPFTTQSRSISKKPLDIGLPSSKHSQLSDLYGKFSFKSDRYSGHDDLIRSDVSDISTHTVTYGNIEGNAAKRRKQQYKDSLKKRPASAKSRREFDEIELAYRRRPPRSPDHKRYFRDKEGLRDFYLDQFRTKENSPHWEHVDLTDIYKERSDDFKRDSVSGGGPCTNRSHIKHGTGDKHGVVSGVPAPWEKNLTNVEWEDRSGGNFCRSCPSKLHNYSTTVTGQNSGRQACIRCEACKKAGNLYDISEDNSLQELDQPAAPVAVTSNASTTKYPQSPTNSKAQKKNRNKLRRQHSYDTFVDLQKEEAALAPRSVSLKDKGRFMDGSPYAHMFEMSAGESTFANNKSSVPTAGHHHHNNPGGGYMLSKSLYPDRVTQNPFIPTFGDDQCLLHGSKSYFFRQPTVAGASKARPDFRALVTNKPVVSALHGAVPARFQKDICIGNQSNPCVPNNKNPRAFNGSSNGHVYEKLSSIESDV

[12] = target: T2, NR2C (Homo sapiens, UniProt Q05586+Q14957); details: Kb determined by Schild analysis; read-out: 2C (μM) Kb; cited from earlier work
[13] = target: T3, NR2D (Homo sapiens, UniProt O15399+Q05586); assay: Literature functional antagonist potency at NR2D (Table 1); assay type: cell-based; details: Kb ratio
[14] = target: T3, NR2D; details: Kb determined by Schild analysis; read-out: 2D (μM) Kb; cited from earlier work
[15] = target: T4, NR2A (Homo sapiens, UniProt Q05586+Q12879); details: cited from earlier work; for Kb: Kb determined by Schild analysis, read-out: 2A (μM) Kb
T4 sequence (Q12879 23-1464, other chains not shown): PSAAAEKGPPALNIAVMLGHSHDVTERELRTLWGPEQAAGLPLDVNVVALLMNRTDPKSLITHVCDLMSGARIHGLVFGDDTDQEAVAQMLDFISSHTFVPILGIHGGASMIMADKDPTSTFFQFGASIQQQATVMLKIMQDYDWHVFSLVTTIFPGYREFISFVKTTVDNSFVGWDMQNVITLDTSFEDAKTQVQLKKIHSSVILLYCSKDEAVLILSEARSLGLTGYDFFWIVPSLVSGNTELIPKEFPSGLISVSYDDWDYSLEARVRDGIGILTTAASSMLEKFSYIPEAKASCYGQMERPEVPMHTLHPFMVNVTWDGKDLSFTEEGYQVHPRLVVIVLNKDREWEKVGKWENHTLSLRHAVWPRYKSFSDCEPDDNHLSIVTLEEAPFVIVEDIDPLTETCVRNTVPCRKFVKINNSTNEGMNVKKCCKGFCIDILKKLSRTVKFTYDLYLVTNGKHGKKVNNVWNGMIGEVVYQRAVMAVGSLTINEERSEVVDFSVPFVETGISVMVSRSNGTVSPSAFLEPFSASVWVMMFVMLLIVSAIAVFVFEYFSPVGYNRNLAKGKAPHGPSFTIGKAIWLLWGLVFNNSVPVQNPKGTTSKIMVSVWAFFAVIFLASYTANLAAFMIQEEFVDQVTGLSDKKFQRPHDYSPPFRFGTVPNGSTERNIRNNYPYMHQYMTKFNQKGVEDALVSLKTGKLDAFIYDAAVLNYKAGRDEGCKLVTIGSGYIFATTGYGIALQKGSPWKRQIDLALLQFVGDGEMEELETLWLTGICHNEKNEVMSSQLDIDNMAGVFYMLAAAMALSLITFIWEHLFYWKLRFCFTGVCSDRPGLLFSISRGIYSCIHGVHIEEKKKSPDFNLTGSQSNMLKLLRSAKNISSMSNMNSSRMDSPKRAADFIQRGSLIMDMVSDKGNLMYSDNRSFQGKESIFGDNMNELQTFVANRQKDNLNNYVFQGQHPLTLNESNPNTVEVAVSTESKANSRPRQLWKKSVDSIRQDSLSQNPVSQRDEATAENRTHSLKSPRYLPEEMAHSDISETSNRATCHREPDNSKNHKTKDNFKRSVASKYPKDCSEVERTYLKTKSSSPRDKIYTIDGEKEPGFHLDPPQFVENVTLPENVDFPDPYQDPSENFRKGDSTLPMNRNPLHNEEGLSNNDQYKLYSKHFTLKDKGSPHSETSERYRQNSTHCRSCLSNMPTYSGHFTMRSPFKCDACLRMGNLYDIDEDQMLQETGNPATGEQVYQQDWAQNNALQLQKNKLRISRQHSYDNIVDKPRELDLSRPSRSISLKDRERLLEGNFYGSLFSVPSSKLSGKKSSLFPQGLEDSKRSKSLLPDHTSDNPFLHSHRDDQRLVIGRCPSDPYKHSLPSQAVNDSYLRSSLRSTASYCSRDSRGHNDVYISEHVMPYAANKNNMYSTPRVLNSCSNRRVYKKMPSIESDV

[16] = target: T1, NR2B; assay: Literature functional antagonist potency at NR2B (Table 1); details: Kb ratio
[17] = target: T1, NR2B
[18] = target: T1, NR2B; details: Ki estimated from equilibrium binding displacement IC50 at a single concentration; low affinity site; read-out: 2B (μM) Ki*; cited from earlier work
[19] = target: T3, NR2D; details: Ki estimated from equilibrium binding displacement IC50 at a single concentration; low affinity site; read-out: 2D (μM) Ki*; cited from earlier work
[20] = target: T2, NR2C; details: Ki estimated from equilibrium binding displacement IC50 at a single concentration; low affinity site; read-out: 2C (μM) Ki*; cited from earlier work
[21] = target: T3, NR2D; assay: Literature equilibrium binding displacement, NR2D (Table 1)
[22] = target: T4, NR2A; details: Ki estimated from equilibrium binding displacement IC50 at a single concentration; low affinity site; read-out: 2A (μM) Ki*; cited from earlier work
[23] = target: T1, NR2B; assay: Literature equilibrium binding displacement, NR2B (Table 1)
[24] = not surmounted by agonists at 500-fold of EC50

Question: With `Cc1nc2ccc(Br)cc2c(-c2ccccc2)c1C1=NN(C(=O)CCC(=O)O)C(c2ccc(Br)cc2)C1` (stereo not shown) [compound 1210] as the compound, how does the IC50 [1] read?
Answer: The IC50 was 33 µM.

Question: And the IC50 [2]?
Answer: The IC50 was 27 µM.

Question: And the “2A percent response at the maximum tested concentration” value [3]?
Answer: The value was 85% at 100 μM.

Question: What about the IC50 [4] of the same compound?
Answer: The IC50 was 209 µM.

Question: Which results are given for `O=C(O)CCC(=O)N1N=C(c2c(-c3ccccc3)c3cc(Br)ccc3[nH]c2=O)CC1c1ccc(F)cc1` (stereo not shown) [compound 1184]?
Answer: IC50 [1]: 33 µM; IC50 [2]: 22 µM; 2A percent response at the maximum tested concentration [3]: 87% at 100 μM; IC50 [4]: 90 µM

Question: For `CCN(CC)C(=S)Oc1ccc(C(=O)Nc2cccc3ccccc23)cc1` [compound 1063], which remaining activity at 100 µM ([5]; at 100 μM, read-out: GluR1 percent effect at the maximum tested concentration) is on record?
Answer: Its remaining activity at 100 µM is 105%.

Question: And the “effect on recombinant AMPA receptors” value ([5]; in words)?
Answer: The value was “little effect”.

Question: And the IC50 [1]?
Answer: The IC50 was 2 µM.

Question: And the “IC50 (half maximally inhibiting concentration), NR1/NR2C” value ([6]; in words)?
Answer: Its value is “low micromolar”.

Question: What about the “mode of block of NR1/NR2C receptors” value [6, 24] of the same compound?
Answer: The value was “non-competitive and voltage-independent blocker”.

Question: What about the “maximum inhibition of NR1/NR2C receptor function” value ([6]; voltage clamp) of the same compound?
Answer: Its value is 85%.

Question: And the “selectivity for NR1/NR2D compared to NR1/NR2A” value ([7]; fitted IC50 values)?
Answer: The value was greater than 500 fold.

Question: And the “IC50 (half maximally inhibiting concentration), NR1/NR2D” value ([7]; in words)?
Answer: Its value is “low micromolar”.

Question: And the “mode of block of NR1/NR2D receptors” value [7, 24]?
Answer: Its value is “non-competitive and voltage-independent blocker”.

Question: What about the “maximum inhibition of NR1/NR2D receptor function” value ([7]; voltage clamp) of the same compound?
Answer: The value was 85%.

Question: What about the IC50 [2] of the same compound?
Answer: The IC50 was 1 µM.

Question: What about the “effect on NR2A-containing receptors” value ([3]; in words) of the same compound?
Answer: Its value is “little effect”.

Question: What about the IC50 [8] of the same compound?
Answer: The IC50 was 1370 µM.

Question: And the IC50 [4]?
Answer: The IC50 was 1230 µM.

Question: And the “effect on NR2B-containing receptors” value ([9]; in words)?
Answer: Its value is “little effect”.

Question: What about the “effect on recombinant kainate receptors” value [10] of the same compound?
Answer: The value was “little effect”.

Question: Which results are given for `O=c1[nH]c2cc(Cl)c(Cl)c([N+](=O)[O-])c2[nH]c1=O` [ACEA-1021]?
Answer: Kb [11]: 0.004 µM; Kb [12]: 0.003 µM; 2A/2D (ratio of Kb) [13]: 0.4; Kb [14]: 0.011 µM; Kb [15]: 0.004 µM; 2A/2B (ratio of Kb) [16]: 1.0

Question: For `C[C@H](N[C@@H](c1cccc2[nH]c(=O)c(=O)[nH]c12)P(=O)(O)O)c1ccc(Br)cc1` [NVP-AAM07], which Kb [11] is on record?
Answer: Its Kb is 78 µM.

Question: What about the Kb [15] of the same compound?
Answer: The Kb was 15.2 µM.

Question: And the “selectivity for NR2A over NR2B” value ([15]; Schild analysis (Kb))?
Answer: Its value is 5 fold.

Question: And the “2A/2B (ratio of Kb)” value [17]?
Answer: Its value is 0.2.

Question: For `O=C(O)CCC(=O)N1N=C(c2c(-c3ccccc3)c3cc(Cl)ccc3[nH]c2=O)CC1c1ccc(Br)cc1` (stereo not shown) [compound 1179], which IC50 [1] is on record?
Answer: Its IC50 is 4 µM.

Question: What about the IC50 ([6]; logistic fit, minimum forced to 0, read-out: 2C IC50) of the same compound?
Answer: Its IC50 is 4 µM.

Question: And the IC50 [2]?
Answer: Its IC50 is 2 µM.

Question: And the IC50 [8]?
Answer: The IC50 was 123 µM.

Question: And the IC50 [4]?
Answer: Its IC50 is 22 µM.

Question: What about the IC50 ([9]; logistic fit, minimum forced to 0, read-out: 2B IC50) of the same compound?
Answer: The IC50 was 22 µM.

Question: What does the source list for `O=C(/C=C/c1c(C(=O)[O-])[nH]c2cc(Cl)cc(Cl)c12)Nc1ccccc1.[Na+]` [GV150, 526A]?
Answer: potency estimated from few doses [18]: 0.08 µM; potency estimated from few doses [19]: 0.05 µM; potency estimated from few doses [20]: 0.11 µM; 2A/2D (ratio of Ki*) [21]: 1.6*; potency estimated from few doses [22]: 0.08 µM; 2A/2B (ratio of Ki*) [23]: 1.0*
